Data reported in article PMC10883292, “Estrogen Receptor Mutations as Novel Targets for Immunotherapy in Metastatic Estrogen Receptor–positive Breast Cancer” (Cancer Research Communications, 2024).

Tests used:
[1] = tested on: peptide-specific CD8+ T cells from PBMC of healthy female HLA-A2 positive donors; experiment: Peptide-specific CTL tetramer assay and expansion; type: cell-based, human; details: for tetramer expansion: post- vs pre-expansion, in words; for average frequency fold change (vs. pre-expansion): after CTL expansion with peptide-pulsed DCs, IL7, IL2; for average frequency fold change (vs. pre-expansion) / average frequency of peptide-specific CTLs in peripheral blood: tetramer staining; for average frequency of peptide-specific CTLs in peripheral blood: pre-expansion, PBMC of healthy females, 3 donors
Excerpt: Healthy donor peripheral blood samples were purchased from the local blood bank and used under an MD Anderson Cancer Center Institutional Review Board–approved protocol. Because the samples came from deidentified healthy donors, the Institutional Review Board determined that informed consent was not required. Peripheral blood mononuclear cells (PBMC) were isolated from buffy coats of healthy female HLA-A2 positive donors by Ficoll/Histopaque (Sigma-Aldrich) density gradient centrifugation and split equally into two groups. One group of PBMC was used to assess the pre-expansion frequency of the peptide-specific CTLs. These cells were immediately stained with FITC-conjugated anti-CD3 and APC-H7–conjugated anti-CD8 to select for CD8^+ T cells. Pacific blue (PB)-conjugated anti-CD4, anti-CD14, anti-CD16, anti-CD19, and anti-CD56 (BD Biosciences) were used as a dump gate to gate out other immune cell types; PE-conjugated mutant peptide and APC-conjugated wild-type peptide tetramers (Baylor College of Medicine, MHC tetramer core, Houston, TX) were used to enumerate the percentage of peptide-specific CD8^+ T cells present in healthy PBMCs. The analysis was performed using flow cytometry.
The second group of donor PBMC was used to assess the expansion potential of the peptide-specific CTLs. To expand peptide-specific CTLs, dendritic cells (DC) were matured from adherent monocytes by the addition of GMCSF (100 ng/mL, Sanoti), IL4 (50 ng/mL, rhIL4, Tonbo Biosciences), and TNFα (25 ng/mL, BioLegend). Lymphocytes from the same donor were separated and cocultured with 40 µg/mL of mutant and wild-type peptides. After 5 days, DCs were harvested and cocultured with autologous CD8^+ T cells for an additional 7 days. The cocultured cells were supplemented with IL7 (10 ng/mL; BioLegend) for CTL activation and IL2 (25 ng/mL; R&D Systems) for CTL expansion. After CTL activation and expansion, cells were stained and analyzed as described above.
FIGURE 3 Peptide-specific expansion of CD8^+ T cells. PBMCs from healthy donors were isolated and expanded as described in the Materials and Methods. Tetramer staining was performed pre- and post-expansion to quantify frequencies of peptide-specific CD8^+ T cells. A, Wildtype-1, E380Q. B, Wildtype-2, Y537S, D538G. Data represents three independent experiments, from 3 separate donors, performed in triplicate. Statistical significance was determined via comparison of pre-expansion versus post-expansion CD8^+tetramer^+ population using unpaired Student t test. *, P < 0.05.

[2] = tested on: peptide-pulsed T2 cells; experiment: Calcein-AM release cytotoxicity assay, peptide-pulsed T2 cells; type: cell-based, human; details: 20:1 effector:target ratio, 4-hour calcein-AM release, T2 cells pulsed with corresponding peptide, peptide-specific CTLs from healthy female donors
Method: Healthy donor lymphocytes and DCs were cocultured in 6-well plates supplemented with IL7 and IL2, as described above. On days 12–14, cultured peptide-specific CTLs were harvested and peptide-specific cytotoxicity was assessed using a standard 4-hour Calcein-AM (Sigma-Aldrich) release assay as described previously ([24]). Briefly, target cells, including T2 cells pulsed with mutant and wild-type peptides, were labeled with 5 µg/mL calcein-AM for 15 minutes in the dark. After two washes, cells were adjusted to 2 × 10^5/mL, plated on a Terasaki plate, and cocultured with peptide-specific CTLs at effector:target ratios of 20:1 and 5:1. After 4 hours of incubation, Trypan blue was added to quench the reaction. The fluorescence was measured using a Cytation 3 Imaging Reader (BioTek). The percentage of specific cell lysis was calculated using the following formula: […]
T2 cells were pulsed with corresponding peptides and labeled with calcein-AM. Cytotoxicity was determined by a standard calcein-AM release assay. Wildtype-1 (A), E380Q (B), Wildtype-2 (C), Y537S (D), D538G (E). Non-pulsed T2 cells were used as negative controls. Statistical significance was determined via unpaired Student t test. Data represent the average of three to four experiments from separate healthy female donors run in triplicate. *, P < 0.05; ***, P < 0.001.

[3] = target: T1, HLA-A*0201 on T2 cells (Homo sapiens, UniProt P04439, D140Y/D185E/D98H/E176V/E277Q/G131W/G231S/I119V/I121R/I166T/I218V/L300P/L318F/N151K/N90K/P208A/P217A/Q86G/Q94H/R138H/R169H/T345S); experiment: T2 dissociation (stability) assay; type: cell-based; details: peptide:HLA-A*0201 dissociation; T2 cells pulsed 8–12 hours, washed; MFI normalized to time 0; linear regression; three independent experiments in triplicate
T1 construct: T2 cells were pulsed with indicated peptides for 8–12 hours, washed, and then stained for surface HLA-A*0201 expression; host or cells: T2 cells
Method: T2 binding assays were performed as described previously ([23]). […] Surface expression of HLA-A*0201 in T2 cells was determined by staining with an anti-HLA-A2 mAb (BB7.2, BD Biosciences). The median fluorescence intensity (MFI) was measured using a FACSCando II (BD Biosciences). The peptide half-life was calculated by linear regression using GraphPad Prism software.
FIGURE 2 Kinetics of peptide: HLA-A*0201 dissociation. T2 cells were pulsed with indicated peptides for 8–12 hours, washed, and then stained for surface HLA-A*0201 expression at indicated timepoints for wildtype-1 and E380Q (A), wildtype-2 and Y537S (B), wildtype-2 and D538G (C). MFI for each timepoint was normalized to initial staining (time = 0). Linear regression analysis was used to plot lines of best fit for each individual peptide, and half-life for each peptide is shown in Table 2. Data are pooled from three independent experiments performed in triplicate.

Sequence	Half-Life [3] [h]	tetramer expansion [1]	specific cytotoxicity [2] [%]	average frequency fold change (vs. pre-expansion) [1] [fold]	average frequency of peptide-specific CTLs in peripheral blood [1] [%]
LLQCAWLEI [E380Q, ESR1-derived nonameric peptide with E380Q mutation]	7.2		28.45	5.77	0.03
PLYGLLLEM [D538G, ESR1-derived nonameric peptide with D538G mutation]	6.0		30.48	4.31	0.17

The next lines start with results.

Half-Life [3] [h]	Sequence	tetramer expansion [1]	specific cytotoxicity [2] [%]	average frequency fold change (vs. pre-expansion) [1] [fold]	average frequency of peptide-specific CTLs in peripheral blood [1] [%]
5.4	LLECAWLEI [Wildtype-1, wild-type ESR1-derived nonameric peptide associated with E380Q]	did not show tetramer expansion	25.99		
6.2	PLSDLLLEM [Y537S, ESR1-derived nonameric peptide with Y537S mutation]		30.03	4.85	0.18
5.9	PLYDLLLEM [Wildtype-2, wild-type ESR1-derived nonameric peptide associated with Y537S and D538G]	modest expansion	13.27		
